Measurements published in patent US20060287533A1, “SOLVENT CONTAINING 1,2,5-THIADIAZOLE COMPOUND, AND METHOD FOR EXTRACTING AN ORGANIC COMPOUND USING THE SOLVENT” (Waseda University, priority 2004, published 2006).

Test: Compatibility of 1,2,5-thiadiazole with other solvents
Assay type: physicochemical
Set-up: key: ◯: Circle: fully compatible to give a uniform mixture; Triangle: giving a white turbidity; X-mark: being divided into two phases
Conditions: 1,2,5-thiadiazole mixed with the listed solvent at volume ratio 1/1 (2 ml), room temperature, visual inspection
Procedure: For 1,2,5-thiadiazole of the present invention, its compatibility with other solvents was studied. The test consisted of mixing 1,2,5-thiadiazole with another solvent at a volume ratio of 1/1 (2 ml), allowing the system to stand at room temperature, and visually inspecting the compatibility of the former with the latter.
Circle: fully compatible to give a uniform mixture
Triangle: giving a white turbidity
X-mark: being divided into two phases

Molecule | Compatibility
CC(C)=O [Acetone] | ◯
CC#N [Acetonitrile] | ◯
c1ccccc1 [Benzene] | ◯
CN(C)C=O [Dimethylformamide] | ◯
CCO [Ethanol] | ◯
CCOC(C)=O [Ethyl acetate] | ◯
CO [Methanol] | ◯
Cc1ccccc1 [Toluene] | ◯
O [Water] | X
CCCCCC [n-Hexane] | ◯
Xylene | ◯

Test: Dissolving capability: amount of solvent needed to completely dissolve 20 mg of compound
Assay type: physicochemical
Conditions: 20 mg compound, solvent 1,2,5-thiadiazole, room temperature, stirring
Procedure: The dissolving capability of 1,2,5-thiadiazole of the present invention was studied. A 20 mg of each of compounds 1 to 20 was transferred into a sample vial, to which 1,2,5-thiadiazole was added at room temperature with stirring. The addition was continued until the compound was completely dissolved, and the addition amount of the solvent was determined.
The same procedure as in Example 3 was repeated except that 1,2,5-thiadiazole was replaced with chloroform. The amount of the solvent required for completely dissolving the compound was determined.
The same procedure as in Example 3 was repeated except that 1,2,5-thiadiazole was replaced with diethylether. The amount of the solvent required for completely dissolving the compound was determined.

Molecule | Addition amount of solvent until compound completely dissolved (Example 3) [µL]
O=C1Cc2ccccc2N1 [Compound 1] | 100
CO[C@H]1OC(COCc2ccccc2)[C@H](N=[N+]=[N-])CC1NS(=O)(=O)c1ccc(C)cc1 (stereo partly drawn) [Compound 2] | 140
O=C1C(OCc2ccccc2)=C[C@@H](CO)[C@@H]1CO [Compound 3] | 160
COCOc1cc(OCOC)c2c(c1)C(S(=O)(=O)c1ccccc1)OC2=O (stereo not drawn) [Compound 4] | 1000
O=C(O)CNC(=O)OCc1ccccc1 [Compound 5] | 1000
Cc1ccc(S(=O)(=O)OCCC2(CCS(=O)(=O)c3ccccc3)OCCO2)cc1 [Compound 6] | 1000
CC(=O)Oc1ccc(OC(C)=O)c(OC(C)=O)c1 [Compound 7] | 100
CO[C@H]1OC2COC(c3ccccc3)O[C@H]2C(O)C1NS(=O)(=O)c1ccc(C)cc1 (stereo partly drawn) [Compound 8] | 200
Cc1ccc(S(=O)(=O)O[C@@H]2C(C)O[C@@H](OCc3ccccc3)C3OC(=O)OC32)cc1 (stereo partly drawn) [Compound 9] | 20
COCOc1cc(OC)c(OC)c2c1C(=O)OC2 [Compound 10] | 200
CC(C)(C)[Si](C)(C)OCC1=CC2(OCCO2)C(O)C(O)C1=O (stereo not drawn) [Compound 11] | 200
CC/C=C(\C)CN1C(=O)OC[C@H]1C(C)C [Compound 12] | 200
O=C1C=CC2(C=C1CO)OCCO2 [Compound 14] | 100
CC1(C)OCc2cc(OCCO)ccc2O1 [Compound 15] | 100
COCCCCC(O)C(O)C(=O)OC (stereo not drawn) [Compound 16] | 100
Cc1oc2ccccc2c(=O)c1C [Compound 17] | 40
CC(=O)OCC1OCCC(OC(C)=O)[C@@H]1OC(C)=O (stereo partly drawn) [Compound 18] | 200
CCCCCC(=O)CC(=O)NC1CCOC1=O (stereo not drawn) [Compound 19] | 100

Same assay, conditions: 20 mg compound, solvent chloroform, room temperature

Molecule | Amount of solvent required for completely dissolving the compound (Comp. Ex. 1)
O=C1Cc2ccccc2N1 [Compound 1] | 400 µL
CO[C@H]1OC(COCc2ccccc2)[C@H](N=[N+]=[N-])CC1NS(=O)(=O)c1ccc(C)cc1 (stereo partly drawn) [Compound 2] | 240 µL
O=C1C(OCc2ccccc2)=C[C@@H](CO)[C@@H]1CO [Compound 3] | 200 µL
COCOc1cc(OCOC)c2c(c1)C(S(=O)(=O)c1ccccc1)OC2=O (stereo not drawn) [Compound 4] | Hardly soluble
O=C(O)CNC(=O)OCc1ccccc1 [Compound 5] | 2000 µL
Cc1ccc(S(=O)(=O)OCCC2(CCS(=O)(=O)c3ccccc3)OCCO2)cc1 [Compound 6] | 2000 µL
CC(=O)Oc1ccc(OC(C)=O)c(OC(C)=O)c1 [Compound 7] | 200 µL
CO[C@H]1OC2COC(c3ccccc3)O[C@H]2C(O)C1NS(=O)(=O)c1ccc(C)cc1 (stereo partly drawn) [Compound 8] | 240 µL
Cc1ccc(S(=O)(=O)O[C@@H]2C(C)O[C@@H](OCc3ccccc3)C3OC(=O)OC32)cc1 (stereo partly drawn) [Compound 9] | 200 µL
COCOc1cc(OC)c(OC)c2c1C(=O)OC2 [Compound 10] | 400 µL
CC(C)(C)[Si](C)(C)OCC1=CC2(OCCO2)C(O)C(O)C1=O (stereo not drawn) [Compound 11] | 400 µL
CC/C=C(\C)CN1C(=O)OC[C@H]1C(C)C [Compound 12] | 200 µL
O=C1C=CC2(C=C1CO)OCCO2 [Compound 14] | 100 µL
CC1(C)OCc2cc(OCCO)ccc2O1 [Compound 15] | 100 µL
COCCCCC(O)C(O)C(=O)OC (stereo not drawn) [Compound 16] | 100 µL
Cc1oc2ccccc2c(=O)c1C [Compound 17] | 40 µL
CC(=O)OCC1OCCC(OC(C)=O)[C@@H]1OC(C)=O (stereo partly drawn) [Compound 18] | 200 µL
CCCCCC(=O)CC(=O)NC1CCOC1=O (stereo not drawn) [Compound 19] | 100 µL

Same assay, conditions: 20 mg compound, solvent diethylether, room temperature

Molecule | Amount of solvent required for completely dissolving the compound (Comp. Ex. 2)
O=C1Cc2ccccc2N1 [Compound 1] | 2000 µL
CO[C@H]1OC(COCc2ccccc2)[C@H](N=[N+]=[N-])CC1NS(=O)(=O)c1ccc(C)cc1 (stereo partly drawn) [Compound 2] | 1600 µL
O=C1C(OCc2ccccc2)=C[C@@H](CO)[C@@H]1CO [Compound 3] | Insoluble
COCOc1cc(OCOC)c2c(c1)C(S(=O)(=O)c1ccccc1)OC2=O (stereo not drawn) [Compound 4] | Hardly soluble
O=C(O)CNC(=O)OCc1ccccc1 [Compound 5] | 2000 µL
Cc1ccc(S(=O)(=O)OCCC2(CCS(=O)(=O)c3ccccc3)OCCO2)cc1 [Compound 6] | Hardly soluble
CC(=O)Oc1ccc(OC(C)=O)c(OC(C)=O)c1 [Compound 7] | 2000 µL
CO[C@H]1OC2COC(c3ccccc3)O[C@H]2C(O)C1NS(=O)(=O)c1ccc(C)cc1 (stereo partly drawn) [Compound 8] | 1600 µL
Cc1ccc(S(=O)(=O)O[C@@H]2C(C)O[C@@H](OCc3ccccc3)C3OC(=O)OC32)cc1 (stereo partly drawn) [Compound 9] | 6000 µL
COCOc1cc(OC)c(OC)c2c1C(=O)OC2 [Compound 10] | Hardly soluble
CC(C)(C)[Si](C)(C)OCC1=CC2(OCCO2)C(O)C(O)C1=O (stereo not drawn) [Compound 11] | Hardly soluble
CC/C=C(\C)CN1C(=O)OC[C@H]1C(C)C [Compound 12] | 200 µL
O=C1C=CC2(C=C1CO)OCCO2 [Compound 14] | 2000 µL
CC1(C)OCc2cc(OCCO)ccc2O1 [Compound 15] | 2400 µL
COCCCCC(O)C(O)C(=O)OC (stereo not drawn) [Compound 16] | 200 µL
Cc1oc2ccccc2c(=O)c1C [Compound 17] | 4000 µL
CC(=O)OCC1OCCC(OC(C)=O)[C@@H]1OC(C)=O (stereo partly drawn) [Compound 18] | 200 µL
CCCCCC(=O)CC(=O)NC1CCOC1=O (stereo not drawn) [Compound 19] | 4800 µL

Test: Extracting activity: partition of compound between water phase and organic phase (TLC)
Assay type: physicochemical
Conditions: 2 mg compound in 100 μl 1,2,5-thiadiazole + 100 μl distilled water
Procedure: The extracting activity of 1,2,5-thiadiazole of the present invention was studied. A 2 mg of each of compounds 1 to 20 was dissolved in 100 μl of 1,2,5-thiadiazole, to which 100 μl of distilled water was added, and the system was subjected to separation operation. The ratio of the content of the compound in water phase against the counterpart in organic phase was determined using TLC, and the results are shown in Table 3.
The same procedure as in Example 4 was repeated except that 1,2,5-thiadiazole was replaced with chloroform, to determine the comparative extracting activity of chloroform.
The same procedure as in Example 4 was repeated except that 1,2,5-thiadiazole was replaced with diethylether, to determine the comparative extracting activity of diethylether.

Molecule | Ratio of content of compound in water phase against organic phase (Example 4)
O=C1Cc2ccccc2N1 [Compound 1] | 1/100
CO[C@H]1OC(COCc2ccccc2)[C@H](N=[N+]=[N-])CC1NS(=O)(=O)c1ccc(C)cc1 (stereo partly drawn) [Compound 2] | 0/100
O=C1C(OCc2ccccc2)=C[C@@H](CO)[C@@H]1CO [Compound 3] | 1/5
COCOc1cc(OCOC)c2c(c1)C(S(=O)(=O)c1ccccc1)OC2=O (stereo not drawn) [Compound 4] | 0/100
O=C(O)CNC(=O)OCc1ccccc1 [Compound 5] | 0/100
Cc1ccc(S(=O)(=O)OCCC2(CCS(=O)(=O)c3ccccc3)OCCO2)cc1 [Compound 6] | 0/100
CC(=O)Oc1ccc(OC(C)=O)c(OC(C)=O)c1 [Compound 7] | 0/100
CO[C@H]1OC2COC(c3ccccc3)O[C@H]2C(O)C1NS(=O)(=O)c1ccc(C)cc1 (stereo partly drawn) [Compound 8] | 1/15
Cc1ccc(S(=O)(=O)O[C@@H]2C(C)O[C@@H](OCc3ccccc3)C3OC(=O)OC32)cc1 (stereo partly drawn) [Compound 9] | 0/100
COCOc1cc(OC)c(OC)c2c1C(=O)OC2 [Compound 10] | 0/100

Same assay, conditions: 2 mg compound in 100 μl chloroform + 100 μl distilled water

Molecule | Ratio of content of compound in water phase against organic phase (Comp. Ex. 3)
O=C1Cc2ccccc2N1 [Compound 1] | 1/10
CO[C@H]1OC(COCc2ccccc2)[C@H](N=[N+]=[N-])CC1NS(=O)(=O)c1ccc(C)cc1 (stereo partly drawn) [Compound 2] | 1/50
O=C1C(OCc2ccccc2)=C[C@@H](CO)[C@@H]1CO [Compound 3] | 4/5
COCOc1cc(OCOC)c2c(c1)C(S(=O)(=O)c1ccccc1)OC2=O (stereo not drawn) [Compound 4] | Hardly soluble
O=C(O)CNC(=O)OCc1ccccc1 [Compound 5] | 1/5
Cc1ccc(S(=O)(=O)OCCC2(CCS(=O)(=O)c3ccccc3)OCCO2)cc1 [Compound 6] | 1/5
CC(=O)Oc1ccc(OC(C)=O)c(OC(C)=O)c1 [Compound 7] | 0/100
CO[C@H]1OC2COC(c3ccccc3)O[C@H]2C(O)C1NS(=O)(=O)c1ccc(C)cc1 (stereo partly drawn) [Compound 8] | 1/15
Cc1ccc(S(=O)(=O)O[C@@H]2C(C)O[C@@H](OCc3ccccc3)C3OC(=O)OC32)cc1 (stereo partly drawn) [Compound 9] | 0/100
COCOc1cc(OC)c(OC)c2c1C(=O)OC2 [Compound 10] | 1/100

Same assay, conditions: 2 mg compound in 100 μl diethylether + 100 μl distilled water

Molecule | Ratio of content of compound in water phase against organic phase (Comp. Ex. 4)
O=C1Cc2ccccc2N1 [Compound 1] | 1/5
CO[C@H]1OC(COCc2ccccc2)[C@H](N=[N+]=[N-])CC1NS(=O)(=O)c1ccc(C)cc1 (stereo partly drawn) [Compound 2] | 1/4
O=C1C(OCc2ccccc2)=C[C@@H](CO)[C@@H]1CO [Compound 3] | Hardly soluble
COCOc1cc(OCOC)c2c(c1)C(S(=O)(=O)c1ccccc1)OC2=O (stereo not drawn) [Compound 4] | Hardly soluble
O=C(O)CNC(=O)OCc1ccccc1 [Compound 5] | 0/100
Cc1ccc(S(=O)(=O)OCCC2(CCS(=O)(=O)c3ccccc3)OCCO2)cc1 [Compound 6] | Hardly soluble
CC(=O)Oc1ccc(OC(C)=O)c(OC(C)=O)c1 [Compound 7] | 0/100
CO[C@H]1OC2COC(c3ccccc3)O[C@H]2C(O)C1NS(=O)(=O)c1ccc(C)cc1 (stereo partly drawn) [Compound 8] | 1/15
Cc1ccc(S(=O)(=O)O[C@@H]2C(C)O[C@@H](OCc3ccccc3)C3OC(=O)OC32)cc1 (stereo partly drawn) [Compound 9] | 0/100
COCOc1cc(OC)c(OC)c2c1C(=O)OC2 [Compound 10] | Hardly soluble

Test: Separatory funnel phase separation of 1,2,5-thiadiazole and water
Assay type: physicochemical
Conditions: 10 ml 1,2,5-thiadiazole and 10 ml water, shaken vigorously, allowed to stand
Procedure: A 10 ml of 1,2,5-thiadiazole and 10 ml of water were put into a separatory funnel, and the system was shaken vigorously, to be allowed to stand.

Molecule | Phase separation from water
1,2,5-thiadiazole | clearly divided into two phases
